Source: paper PMC4608580, “Synthesis and Evaluation of Biological Activity of Antimicrobial – Pro-Proliferative Peptide Conjugates” (PLoS ONE, 2015)

Legend:
[1] = system: human primary dermal fibroblasts; assay: Cell migration assay (in vitro scratch test); format: cell-based; settings: 25 μg/mL, 24 h
Description: Biopsies of healthy human skin were obtained aseptically from three donors (47–69 years old) undergoing circumcision after obtaining their written informed consent. All the procedures were approved by the Ethics Committee of Medical University of Gdansk (NKEBN/483/2011. Issued: 2011-12-19). The samples were washed several times with sterile PBS (Sigma-Aldrich, Germany) containing antibiotic (200 U/mL penicillin and 200 μg/mL streptomycin), after which, the subcutaneous tissue was cut off with a sharp blade. The resulting sheets were cut into small fragments, washed two times with sterile PBS and treated with 6 U/mL dispase II (BD, USA) overnight at 4°C to separate epidermis and dermis. The dermis was then digested with 1.0 mg/mL collagenase type I (from Clostridium histolyticum Sigma-Aldrich, Germany) for 2 hours at 37°C to isolate fibroblasts. Cells were used between the 2nd and 4th passage in all experiments.
Fibroblasts and keratinocytes were seeded (5x10^5 cells/well) in 6-well plates. When desired monolayer confluence was reached, cells were starved for 24 hours in serum-free DMEM. The monolayer was scratched then with 200μL-pipette tip. […] The wounded areas were then photographed by means of Zeiss Observer D1 microscope equipped with camera AxioCam and analyzed with AxioVision software (Carl Zeiss, Germany). Migration activity of the cells treated with the tested peptides were expressed as the percentage of the wounded area with respect to the control probe (cell cultures without any of the peptide), assumed as 100%.
An in vitro scratch test was performed to investigate the effect of the analyzed compounds on keratinocytes and fibroblasts migration. […]
Fig 2 Effect of the peptides on HaCaT keratinocytes and fibroblasts cell migration in the in vitro scratch test. […] Migration was analyzed after 24 hours by means of Zeiss Observer D1 microscope, wounding areas were analyzed with AxioVision software and expressed as the percentage of the wound width in comparison to the control sample (cells incubated in DMEM without FCS). […]

HaCaT keratinocytes = assay: Cell migration assay (in vitro scratch test); format: cell-based, human; settings: 25 μg/mL, 24 h, serum-free DMEM, Mitomycin C 5 μg/mL, vs. control without peptide, three independent experiments
Description: Fibroblasts and keratinocytes were seeded (5x10^5 cells/well) in 6-well plates. When desired monolayer confluence was reached, cells were starved for 24 hours in serum-free DMEM. The monolayer was scratched then with 200μL-pipette tip. The floating cells and cell debris were removed by double washing in PBS, further replaced with a fresh serum-free medium. Wounded monolayers were incubated for the next 24 h in the presence of tested peptides used at concentration of 25 μg/mL and 5 μg/mL of Mitomycin C (Sigma Aldrich) to prevent proliferation. At the end of the experiment medium was removed and the cells were fixed with 3.7% PFA for 5 min, stained for the next 30 min with 0.05% crystal violet solution, washed several times with distilled water and the plates were left inverted for a couple of minutes to drain. The wounded areas were then photographed by means of Zeiss Observer D1 microscope equipped with camera AxioCam and analyzed with AxioVision software (Carl Zeiss, Germany). Migration activity of the cells treated with the tested peptides were expressed as the percentage of the wounded area with respect to the control probe (cell cultures without any of the peptide), assumed as 100%.
An in vitro scratch test was performed to investigate the effect of the analyzed compounds on keratinocytes and fibroblasts migration. Evaluation was based on the efficiency of the invasion of the monolayer cells to the prewounded area within 24 h after stimulation with the appropriate compound added at concetration of 25μg/mL.
Fig 2 Effect of the peptides on HaCaT keratinocytes and fibroblasts cell migration in the in vitro scratch test. HaCaT cells and fibroblasts were grown in 6-well plates until the 100% confluence was reached, then cells were starved for the next 12 hours in DMEM without 10% FCS and scratched once vertically with a 200μL pipette tip. After being washed two times with sterile PBS, a fresh portion of DMEM medium was added and cells were treated with the tested peptides applied at their optimal doses (25 μg/mL). Migration was analyzed after 24 hours by means of Zeiss Observer D1 microscope, wounding areas were analyzed with AxioVision software and expressed as the percentage of the wound width in comparison to the control sample (cells incubated in DMEM without FCS). Control+ FCS corresponds to the sample with cells incubated in the medium containing 10% FCS and was treated as the additional positive control. Data represent the mean ± SD of three independent experiments. *P < 0.05, **P < 0.01, ***P < 0.001 vs. control.

Proteus mirabilis = assay: MIC, broth microdilution; format: cell-based; settings: Mueller-Hinton broth, approximately 10^5 CFU/mL, 37°C, 24 h, absorbance 590 nm, at least triplicate
Description: Luria-Bertani broth (LB) and Sabouraud Dextrose broth (SB) (Biocorp, Poland) were used for cultivation of bacteria and fungi strains, respectively. Antimicrobial activity of peptides was analyzed through determination of MIC (minimal inhibitory concentration) parameter according to the standard microdilution technique performed on 96-well plates. Mueller-Hinton broth (MHB) was used as the working medium for all bacterial strains, while in case of fungi it was additionally supplemented with 2% glucose.
Briefly, inoculum was prepared from freshly grown cultures of microorganisms being at their exponential phase of growth. […] Then plates were incubated overnight at 37°C and absorbance was read at 590 nm after 24 h. […]
All peptides were screened against the wide range of microorganisms, including Gram-negative, Gram-positive bacteria and fungi from Candida species (Table 2). […] All assays were performed on liquid Mueller-Hinton broth, which was additionally supplemented with 2% glucose when fungicidal activity towards Candida spps. was analyzed.

Substance	Effect on fibroblast migration (scratch test), in words ([1]; serum-free DMEM, Mitomycin C 5 μg/mL, vs. control without peptide, three independent experiments)	Effect on keratinocyte migration (scratch test), in words (HaCaT keratinocytes)	MIC P.mirabilis (Proteus mirabilis)	Inhibitory effect on fibroblast migration in comparison to the control ([1]; scratch test)
YAGFLR-PEG-IKKILSKIKKLL-NH2 [DAL-PEG-DK5, conjugate of dalargin and DK5 joined by PEG-linker]	neutral or slightly stimulative	neutral or slightly stimulative		
IKKILSKIKKLL-NH2 [DK5, Lys-rich derivative of amphibian AMP temporin-1CEb, …-NH2, reference compound]			NI ^a)	~50%
